# Data as given in ChEMBL document CHEMBL3734751, “Discovery of novel, potent and low-toxicity angiotensin II receptor type 1 (AT1) blockers: Design, synthesis and biological evaluation of 6-substituted aminocarbonyl benzimidazoles with a chiral center” (Eur J Med Chem, 2015).
# Residue numbers refer to the chain shown, from its start. Active and inactive are the calls of the source. No cut-off for these calls is given here.
# What was measured:
# Mus musculus [1] = assay: Hepatotoxicity in Kunming mouse assessed as serum ALT level at 2 g/kg by automatic biochemical analyser (reference value: 44.33 +/- 6.50 U/T); format: toxicity, organism-based; details: in vivo, 2000 mg/kg
# Mus musculus [2] = assay: Hepatotoxicity in Kunming mouse assessed as serum AST level at 1 g/kg by automatic biochemical analyser (reference value: 133.44 +/- 25.05 U/T); format: toxicity, organism-based; details: in vivo, 1000 mg/kg
# [3] = Toxicity in Kunming mouse at 4 g/kg, po assessed as mortality after 2 weeks; format: organism-based; details: in vivo, 4000 mg/kg
# [4] = target: T1, Type-1 angiotensin II receptor (Oryctolagus cuniculus, UniProt P34976); assay: Antagonist activity against AT1 receptor in Japanese White rabbit aortic strips assessed as reduction in angiotension-2-induced contractile response after 60 mins by Schild's plot analysis; details: read-out: pA2 (converted)
# T1 sequence (P34976 whole entry): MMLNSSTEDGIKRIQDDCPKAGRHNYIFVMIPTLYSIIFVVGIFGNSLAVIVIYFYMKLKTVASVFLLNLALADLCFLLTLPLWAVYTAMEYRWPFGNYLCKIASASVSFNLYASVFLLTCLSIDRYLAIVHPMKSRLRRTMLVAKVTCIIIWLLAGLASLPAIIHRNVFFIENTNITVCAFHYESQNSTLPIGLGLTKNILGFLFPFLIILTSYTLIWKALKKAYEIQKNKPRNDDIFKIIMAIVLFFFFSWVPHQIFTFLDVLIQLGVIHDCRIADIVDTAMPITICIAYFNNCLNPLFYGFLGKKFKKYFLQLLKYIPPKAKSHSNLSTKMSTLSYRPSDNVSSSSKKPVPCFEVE
# [5] = Mutagenicity in Kunming mouse bone marrow cells assessed as ratio of polychromatic erythrocyte level to norchromatic erythrocyte level at 0.5 g/kg by May-Grunwald-Giemsa staining-based microscopic analysis (reference value: 1.32 +/- 0.22 ); format: toxicity, cell-based, Bone marrow cell; details: in vivo, 500 mg/kg
# Rattus norvegicus [6] = assay: Antihypertensive activity in po dosed spontaneously hypertensive rat assessed as decrease in mean blood pressure by tail-cuff plethysmography; format: functional, organism-based
# [7] = Volume of distribution at steady state in Sprague-Dawley rat at 3 mg/kg, iv by LC-MS/MS; format: ADME, organism-based; details: in vivo, read-out: Vdss
# Mus musculus [8] = assay: Hepatotoxicity in Kunming mouse assessed as serum AST level at 0.5 g/kg by automatic biochemical analyser (reference value: 133.44 +/- 25.05 U/T); format: toxicity, organism-based; details: in vivo, 500 mg/kg
# Mus musculus [9] = assay: Hepatotoxicity in Kunming mouse assessed as serum AST level at 2 g/kg by automatic biochemical analyser (reference value: 133.44 +/- […] U/T); format: toxicity, organism-based; details: in vivo, 2000 mg/kg
# Rattus norvegicus [10] = assay: Antihypertensive activity in spontaneously hypertensive rat model assessed as decrease in systolic and diastolic blood pressure at 30 mg/kg, po administered daily for 14 days and measured after 2 days of drug withdrawal by tail-cuff plethysmography; format: functional, organism-based
# [11] = Mutagenicity in Kunming mouse bone marrow cells assessed as micronucleated polychromatic erythrocytes level at 0.5 g/kg by May-Grunwald-Giemsa staining-based microscopic analysis (reference value: 3.2 +/- 1.62 ); format: toxicity, cell-based, Bone marrow cell; details: in vivo, 500 mg/kg
# Rattus norvegicus [12] = assay: Antihypertensive activity in spontaneously hypertensive rat model assessed as decrease in heart rate at 30 mg/kg, po administered daily for 14 days and measured after 2 days of drug withdrawal by tail-cuff plethysmography; format: functional, organism-based
# Mus musculus [13] = assay: Renal toxicity in Kunming mouse assessed as serum creatinin level at 2 g/kg by automatic biochemical analyser (reference value: 13.78 +/- 2.64 umol/L); format: organism-based; details: in vivo, 2000 mg/kg
# [14] = Tmax in Sprague-Dawley rat at 30 mg/kg, po by LC-MS/MS; format: ADME, organism-based; details: in vivo
# [15] = Mutagenicity in Kunming mouse bone marrow cells assessed as ratio of polychromatic erythrocyte level to norchromatic erythrocyte level at 1 g/kg by May-Grunwald-Giemsa staining-based microscopic analysis (reference value: 1.32 +/- 0.22 ); format: toxicity, cell-based, Bone marrow cell; details: in vivo, 1000 mg/kg
# Mus musculus [16] = assay: Renal toxicity in Kunming mouse assessed as serum creatinin level at 0.5 g/kg by automatic biochemical analyser (reference value: 13.78 +/- 2.64 umol/L); format: organism-based; details: in vivo, 500 mg/kg
# Rattus norvegicus [17] = assay: Antihypertensive activity in spontaneously hypertensive rat model assessed as decrease in systolic and diastolic blood pressure at 30 mg/kg, po administered daily for 14 days by tail-cuff plethysmography; format: functional, organism-based
# [18] = Oral bioavailability in Sprague-Dawley rat at 30 mg/kg, by LC-MS/MS; format: ADME, organism-based; details: in vivo
# [19] = Mutagenicity in Kunming mouse bone marrow cells assessed as micronucleated polychromatic erythrocytes level at 2 g/kg by May-Grunwald-Giemsan staining-based microscopic analysis (reference value: 3.2 +/- 1.62 ); format: toxicity, cell-based, Bone marrow cell; details: in vivo, 2000 mg/kg
# [20] = Toxicity in Kunming mouse at 5 g/kg, po assessed as mortality after 2 weeks; format: organism-based; details: in vivo, 5000 mg/kg
# [21] = Toxicity in orally dosed Kunming mouse assessed as mortality after 2 weeks; format: organism-based; details: in vivo, po
# [22] = Terminal half-life in Sprague-Dawley rat at 30 mg/kg, po by LC-MS/MS; format: ADME, organism-based; details: in vivo, read-out: beta t1/2 (converted)
# [23] = Mutagenicity in Kunming mouse bone marrow cells assessed as micronucleated polychromatic erythrocytes level at 1 g/kg by May-Grunwald-Giemsa staining-based microscopic analysis (reference value: 3.2 +/- 1.62 ); format: toxicity, cell-based, Bone marrow cell; details: in vivo, 1000 mg/kg
# Rattus norvegicus [24] = assay: AUC in Sprague-Dawley rat at 3 mg/kg, iv by LC-MS/MS; format: ADME, organism-based; details: in vivo
# Mus musculus [25] = assay: Hepatotoxicity in Kunming mouse assessed as serum ALT level at 0.5 g/kg by automatic biochemical analyser (reference value: 44.33 +/- 6.50 U/T); format: toxicity, organism-based; details: in vivo, 500 mg/kg
# [26] = target: T2, Type-1 angiotensin II receptor (Homo sapiens, UniProt P30556); assay: Displacement of [125I]Sar1Ile8-Ang2 from human AT1 receptor expressed in CHO-K1 cell membranes after 180 mins
# T2 sequence (P30556 whole entry): T1 sequence (P34976 whole entry) with M2I, A49V, V254I, V270I, H272R, K311R, S349T, V353A
# [27] = Terminal half-life in Sprague-Dawley rat at 3 mg/kg, iv by LC-MS/MS; format: ADME, organism-based; details: in vivo, read-out: beta t1/2 (converted)
# Rattus norvegicus [28] = assay: Antihypertensive activity in spontaneously hypertensive rat model assessed as decrease in heart rate at 30 mg/kg, po administered daily for 14 days by tail-cuff plethysmography; format: functional, organism-based
# Mus musculus [29] = assay: Renal toxicity in Kunming mouse assessed as serum urea level at 1 g/kg by automatic biochemical analyser (reference value: 9.95 +/- 1.39 mmol); format: organism-based; details: in vivo, 1000 mg/kg
# [30] = Toxicity in Kunming mouse at 3 g/kg, po assessed as mortality after 2 weeks; format: organism-based; details: in vivo, 3000 mg/kg
# Mus musculus [31] = assay: Renal toxicity in Kunming mouse assessed as serum urea level at 2 g/kg by automatic biochemical analyser (reference value: 9.95 +/- 1.39 mmol); format: organism-based; details: in vivo, 2000 mg/kg
# Mus musculus [32] = assay: Renal toxicity in Kunming mouse assessed as serum urea level at 0.5 g/kg by automatic biochemical analyser (reference value: 9.95 +/- 1.39 mmol); format: organism-based; details: in vivo, 500 mg/kg
# [33] = Toxicity in Kunming mouse at 2 g/kg, po assessed as mortality after 2 weeks; format: organism-based; details: in vivo, 2000 mg/kg
# [34] = Mutagenicity in Kunming mouse bone marrow cells assessed as ratio of polychromatic erythrocyte level to norchromatic erythrocyte level at 2 g/kg by May-Grunwald-Giemsa staining-based microscopic analysis (reference value: 1.32 +/- 0.22 ); format: toxicity, cell-based, Bone marrow cell; details: in vivo, 2000 mg/kg
# [35] = Cmax in Sprague-Dawley rat at 30 mg/kg, po by LC-MS/MS; format: ADME, organism-based; parameters: dose 30 mg/kg, route oral; details: in vivo
# Mus musculus [36] = assay: Hepatotoxicity in Kunming mouse assessed as serum ALT level at 1 g/kg by automatic biochemical analyser (reference value: 44.33 +/- 6.50 U/T); format: toxicity, organism-based; details: in vivo, 1000 mg/kg
# Mus musculus [37] = assay: Renal toxicity in Kunming mouse assessed as serum creatinin level at 1 g/kg by automatic biochemical analyser (reference value: 13.78 +/- 2.64 umol/L); format: organism-based; details: in vivo, 1000 mg/kg
# [38] = AUC in Sprague-Dawley rat at 30 mg/kg, po by LC-MS/MS; format: ADME, organism-based; details: in vivo
smiles,measurement,setting,value
CCCc1nc2c(C)cc(C(=O)NC[C@H](C)c3ccccc3)cc2n1Cc1ccc(-c2ccccc2-c2nnn[nH]2)cc1,Activity,Mus musculus [1],91.4 U/L
same,Activity,Mus musculus [2],141 U/L
same,mortality at 336 h,[3],50%
same,Kb,[4],1.78 nM
same,Ratio,[5],1.34
same,Activity,Rattus norvegicus [6],Dose-dependent effect
same,Vd,[7],11 L/kg
same,Activity,Mus musculus [8],126 U/L
same,Activity,Mus musculus [9],217 U/L
same,Activity,Rattus norvegicus [10],Active
same,Activity,[11],3
same,Activity,Rattus norvegicus [12],Active
same,Activity,Mus musculus [13],6.14 µmol/L
same,Tmax,[14],0.75 h
same,Ratio,[15],1.28
same,Activity,Mus musculus [16],10.3 µmol/L
same,Activity,Rattus norvegicus [17],Active
same,bioavailability,[18],42%
same,Activity,[19],4.3
same,mortality at 336 h,[20],90%
same,LD50 at 336 h,[21],3640 mg/kg
same,half-life,[22],13 h
same,Activity,[23],3.8
same,AUC,Rattus norvegicus [24],12200 ng·h/mL
same,Activity,Mus musculus [25],42.7 U/L
same,IC50,[26],1.1 nM
same,half-life,[27],12.6 h
same,Activity,Rattus norvegicus [28],Active
same,Activity,Mus musculus [29],10 mM
same,mortality at 336 h,[30],30%
same,Activity,Mus musculus [31],11.2 mM
same,Activity,Mus musculus [32],8.71 mM
same,mortality at 336 h,[33],0%
same,Ratio,[34],1.64
same,Cmax,[35],14600 ng/mL
same,Activity,Mus musculus [36],52.6 U/L
same,Activity,Mus musculus [37],8.3 µmol/L
same,AUC,[38],51500 ng·h/mL
